Experimental data taken from publication PMC10060354, “Discovery of a small molecule ligand of FRS2 that inhibits invasion and tumor growth” (Cellular Oncology, 2022).
≈ marks a conversion by molar mass, not a printed value. Where two headings read alike, the source gives them in different places.

Assays:
[1] = system: HepG2 human hepatocellular carcinoma cells; test: Cell viability (cytotoxicity, MTT) using HepG2; assay type: cell-based; settings: for MEC: 72h, 3 replicas, NR = No response (Summary sheet); for MTT (MEC) Minimum effective concentration: 72 h, summary sheet
Protocol: (§1) HepG2 human hepatocellular carcinoma cells were plated on 96-well tissue culture polystyrene plates for 24 h prior to dosing of the cells. The shortlisted hits were diluted in DMSO and serial dilutions are made 1% DMSO in growth media. Compounds at 8 concentrations in triplicate was then incubated for 72 h. Appropriate blanks and controls were run alongside the assay. One h prior to the end of the incubation period, the cells were loaded with MTT [yellow; 3-(4,5-dimethyl-2-thiazolyl)-2,5-diphenyl-2H-tetrazolium bromide], the plates were dried and re-solubilized using DMSO. The plates were then scanned at 570 nm using a plate reader.
(§2) The minimum effective concentration was determined from the lowest concentration whose mean value exceeds the significance level, provided either a clear dose–response relationship was observed, or at least two consecutive concentration points were above the significance level.

[2] = Cell viability (cytotoxicity, MTT) using HepG2; assay type: cell-based, human; settings: human, HepG2 cells
Protocol: as §1, §2

[3] = Semi-thermodynamic solubility; assay type: physicochemical; settings: for solubility: Room Temp, Overnight, LC-MSMS; for solubility thermodynamic: overnight; for solubility thermodynamic / Solubility (class in words): summary sheet
Protocol: In vitro ADME-T assays were performed by Cyprotex (Cyprotex Discovery, Cheshire, UK). […] The solution was agitated at ambient temperature overnight. The solutions were then centrifuged for 30 min at 3000 rpm at RT. The supernatant was removed and centrifuged for a further 30 min under the same conditions. An aliquot of the resulting supernatant was diluted in 50% methanol in water (containing an internal standard for MS analysis) prior to analysis by LC–MS/MS. […] These stocks were diluted in 50% methanol in water (containing an internal standard for MS analysis) prior to analysis by LC–MS/MS. The solubility of the shortlisted hits was calculated from a linear or quadratic fit of the standard curve.

DAOY cells = test: Spheroid invasion assay (SIA), bFGF-induced collagen I invasion; assay type: cell-based, human; settings: for functional activity in SIA (result in words): DAOY, bFGF-induced, 1, 5 and 10 µM
Protocol: 1000—2500 cells/well in 100 μl were seeded in 96 well Corning® Spheroid microplate (CLS4520, Sigma-Aldrich) or in cell-repellent 96 well microplate (650,790, Greiner Bio-one). SIA and analysis was performed as described before. In brief: After spheroid formation (24 – 72 h after seeding), 70 µl medium was removed and replaced with the collagen mixture (2.5 mg/ml Pure Col Collagen I (Advanced Biomatrix)), DMEM 1x (from 10 × stock, Sigma, D2429) and 0.4% Sodium bicarbonate (Sigma, S8761)), resulting in a final collagen concentration of 1.75 mg/ml. Embedded spheroids were stimulated with bFGF (100 ng/ml if not otherwise stated), HGF (30 ng /ml) or EGF (20 ng/ml) and distance of invaded cells quantified 24 – 48 h after embedding. Compounds and BGJ398 were added in Dimethylsulfoxid (DMSO) and corresponding DMSO concentrations were used in control samples.

[4] = CaCo-2 permeability (bi-directional); settings: human
Protocol: Caco-2 cells obtained from the ATCC were used between passage numbers 40—60. Cells were seeded onto Millipore Multiscreen Transwell plates at 1 × 10^5 cells/cm^2. The cells were cultured in DMEM and media was changed every two or three days. On day 20, the permeability study was performed. […] Cells were then incubated with HBSS at the desired pH in both apical and basolateral compartments for 40 min to stabilize physiological parameters.
The fluorescent integrity marker lucifer yellow was also included in the dosing solution. Analytical standards were prepared from test compound DMSO dilutions and transferred to buffer, maintaining a 1% v/v DMSO concentration.
For assessment of A-B permeability, HBSS was removed from the apical compartment and replaced with test compound dosing solution. The apical compartment insert was then placed into a companion plate containing fresh buffer (containing 1% v/v DMSO). For assessment of B-A permeability, HBSS was removed from the companion plate and replaced with test compound dosing solution. Fresh buffer (containing 1% v/v DMSO) was added to the apical compartment insert, which was then placed into the companion plate.
Compound permeability was assessed in duplicate. Compounds of known permeability characteristics were run as controls on each assay plate.
Test and control compounds were quantified by LC–MS/MS cassette analysis using a 7-point calibration with appropriate dilution of the samples. The starting concentration (C0) was determined from the dosing solution and the experimental recovery calculated from C0 and both apical and basolateral compartment concentrations. The integrity of the monolayer throughout the experiment was checked by monitoring lucifer yellow permeation using fluorimetric analysis.
The permeability coefficient (Papp) for each compound was calculated from the following equation: Papp=dQ/dtC0×A where dQ/dt was the rate of permeation of the drug across the cells, C0 was the donor compartment concentration at time zero and A was the area of the cell monolayer. C0 was obtained from analysis of the dosing solution.
Efflux ratio (ER) was calculated from mean A-B and B-A data. This was derived from: ER=Papp(B-A)Papp(A-B)

[5] = Microsomal metabolic stability; assay type: in vitro ADME; settings: human, pooled liver microsomes; for half-life at 1 µM: pH 7.4, liver microsomes, read-out: t1/2; for microsomal CLint at 1 µM: pH 7.4, read-out: Metabolic stability - Intrinsic clearance (CI)
Protocol: Pooled liver microsomes were purchased from Xenotech (H0500) and were stored according to manufacturer’s instructions prior to use. […] A minus co-factor control incubation was included for each compound tested where 0.1 M phosphate buffer pH 7.4 was added instead of NADPH. Two control compounds were included with each species. All incubations were performed singularly for each shortlisted hit. Each compound was incubated for 0, 5, 15, 30 and 45 min. The minus co-factor was incubated for 45 min only. The reactions were stopped by transferring incubate into acetonitrile at the appropriate time points in a 1:3 ratio. The termination plates were centrifuged at 3000 rpm for 20 min at 4 °C to precipitate the protein. Following protein precipitation, the supernatant were combined in cassette of up to 4 compounds, internal standard for MS analysis was added and samples were analyzed using LC–MS/MS. From a plot of In peak area ratio (compound peak area/internal standard peak area) against time, the gradient of the lines were determined. Subsequently, half-life and intrinsic clearance were calculated using the following equations. Eliminationrateconstant(k)=(-gradient)Half-life(t1/2)(min)=0.693/kIntrinsicclearance(CLint)(μl/min/mgprotein)=Vx0.693/t1/2 where V = Incubation volume (µl) / Microsomal protein (mg)

[6] = 72h, 3 replicas, NR = No response (Summary sheet), read-out: AC50
[7] = PBS, aqueous buffer, thermodynamic from solid, read-out: Mean Solubility
[8] = PBS, aqueous buffer, thermodynamic from solid, read-out: Solubility Replicate 1
[9] = PBS, aqueous buffer, thermodynamic from solid, read-out: Solubility Replicate 2
[10] = PBS, aqueous buffer, thermodynamic from solid, read-out: Solubility Replicate 3
[11] = PBS, aqueous buffer, thermodynamic from solid, read-out: Solubility Replicate 4
[12] = aqueous buffer, thermodynamic from solid, PBS
[13] = 72 h, summary sheet, read-out: MTT (AC50) Conc at which 50% of maximum efficacy is reached
[14] = Caco-2, Mean Papp A-B, Caco-2, summary sheet
[15] = Caco-2, Mean Papp B-A, Caco-2, summary sheet
[16] = Caco-2, pH 7.4, Mean % Recovery A2B, HBSS/HBSS, pH 7.4/7.4
[17] = Caco-2, pH 7.4, Mean % Recovery B2A, HBSS/HBSS, pH 7.4/7.4
[18] = Caco-2, pH 7.4, Mean Papp A2B, HBSS/HBSS, pH 7.4/7.4
[19] = Caco-2, pH 7.4, Mean Papp B2A, HBSS/HBSS, pH 7.4/7.4
[20] = Caco-2, pH 7.4, Papp A2B Replicate 1, HBSS/HBSS, pH 7.4/7.4
[21] = Caco-2, pH 7.4, Papp B2A Replicate 1, HBSS/HBSS, pH 7.4/7.4
[22] = Caco-2, pH 7.4, Papp B2A Replicate 2, HBSS/HBSS, pH 7.4/7.4

| Compound | MEC [1] [µM] | AC50 at 72 h [2, 6] [µM] | solubility [3, 7] [µM] | solubility [3, 8] [µM] | solubility [3, 9] [µM] | solubility [3, 10] [µM] | solubility [3, 11] [µM] | solubility thermodynamic [3, 12] [µM] | Solubility (class in words) [3] | functional activity in SIA (result in words) (DAOY cells) | MTT (MEC) Minimum effective concentration [1] [µM] | AC50 at 72 h [2, 13] [µM] | efflux ratio at 120 min, 10 μM ([4]; Caco-2) | Papp A→B at 120 min, 10 μM [4, 14] [×10⁻⁶ cm/s] | Papp B→A at 120 min, 10 μM [4, 15] [×10⁻⁶ cm/s] | efflux ratio at 120 min, 10 μM ([4]; Caco-2, pH 7.4) | recovery at 120 min, 10 µM [4, 16] [%] | recovery at 120 min, 10 µM [4, 17] [%] | Papp A→B at 120 min, 10 μM [4, 18] [×10⁻⁶ cm/s] | Papp B→A at 120 min, 10 μM [4, 19] [×10⁻⁶ cm/s] | other results |
| --- | --- | --- | --- | --- | --- | --- | --- | --- | --- | --- | --- | --- | --- | --- | --- | --- | --- | --- | --- | --- | --- |
| CN(C)CCCN1c2ccccc2Sc2ccc(Cl)cc21 [Chlorpromazine, reference compound] | 10.7 | 12.9 | – | – | – | – | – | – | – | – | – | – | – | – | – | – | – | – | – | – | – |
| CC1(C)Cc2cccc(OCC(=O)Nc3nc4ccccc4s3)c2O1 [Compound E25] | 42.6 | – | 1.25 (≈ 0.443 µg/mL) | 1.26 (≈ 0.447 µg/mL) | 1.12 (≈ 0.397 µg/mL) | 1.21 (≈ 0.429 µg/mL) | 1.4 (≈ 0.496 µg/mL) | 1.25 (≈ 0.443 µg/mL) | Sligthly | comparable inhibition of invasion | 42.6 | 58.7 | 4 | 1.11 | 4.46 | 4 | 6.59 | 50.6 | 1.11 | 4.46 | EC50 (DAOY cells; Homo sapiens, Daoy, DAOY cells, n = 3 technical replicas, read-out: EC50 for the inhibition of bFGF-induced collagen I invasion): 7.51 µM; Papp A→B at 120 min, 10 μM [4, 20]: 1.12 ×10⁻⁶ cm/s; Papp A→B at 120 min, 10 μM ([4]; Caco-2, pH 7.4, Papp A2B Replicate 2, HBSS/HBSS, pH 7.4/7.4): 1.11 ×10⁻⁶ cm/s; Papp B→A at 120 min, 10 μM [4, 21]: 5.88 ×10⁻⁶ cm/s; Papp B→A at 120 min, 10 μM [4, 22]: 3.04 ×10⁻⁶ cm/s; half-life at 1 µM [5]: 0.552 min; microsomal CLint at 1 µM [5]: 2510 µL/min/mg |
| CC(=O)CC(c1ccccc1)c1c(O)c2ccccc2oc1=O (stereo not drawn) [warfarin, reference compound] | – | – | – | > 100 | – | – | – | – | – | – | – | – | – | – | – | – | – | – | – | – | solubility ([3]; read-out: Mean Solubility): >100 µM; solubility ([3]; read-out: Solubility Replicate 2): >100 µM; solubility ([3]; read-out: Solubility Replicate 3): >100 µM; solubility ([3]; read-out: Solubility Replicate 4): >100 µM |
| N#CC(C#N)=NNc1cccc(Cl)c1 [carbonyl cyanide 3-chlorophenylhydrazone, reference compound] | 4.22 | 6.66 | – | – | – | – | – | – | – | – | – | – | – | – | – | – | – | – | – | – | – |
| Oc1cc(Cl)cc2c1NC(c1ccccc1)C1CC=CC21 (stereo not drawn) [Compound 11] | 14.2 | – | 2.18 (≈ 0.649 µg/mL) | 1.95 (≈ 0.581 µg/mL) | – | 2.79 (≈ 0.831 µg/mL) | 1.79 (≈ 0.533 µg/mL) | 2.18 (≈ 0.649 µg/mL) | Sligthly | reduced effect compared to its parent compound 3.18 at all concentrations | 14.2 | 19.6 | 36.9 | 0.3 | 11.1 | 36.9 | 30 | 8.82 | 0.3 | 11.1 | Papp A→B at 120 min, 10 μM [4, 20]: 0.3 ×10⁻⁶ cm/s; Papp B→A at 120 min, 10 μM [4, 21]: 11.5 ×10⁻⁶ cm/s; Papp B→A at 120 min, 10 μM [4, 22]: 10.6 ×10⁻⁶ cm/s; half-life at 1 µM [5]: 2.83 min; microsomal CLint at 1 µM [5]: 490 µL/min/mg |
| COC(=O)C1=C(C)NC(C)=C(C(=O)OCCN(C)Cc2ccccc2)C1c1cccc([N+](=O)[O-])c1 (stereo not drawn) [nicardipine, reference compound] | – | – | 29.8 (≈ 14.3 µg/mL) | 34.3 (≈ 16.4 µg/mL) | 24.2 (≈ 11.6 µg/mL) | 29.6 (≈ 14.2 µg/mL) | 31.2 (≈ 15 µg/mL) | – | – | – | – | – | – | – | – | – | – | – | – | – | – |
